This is an account of results in patent publication US9107851B2, “Solventless mixing process for coating pharmaceutical ingredients” (New Jersey Institute of Technology, priority 2012, dated 2015).

This data set is described as follows: USP dissolution test (Apparatus II paddles, pH 7.2 phosphate buffer with SDS, 37° C.). The following applies: for Time to dissolve: uncoated; for Initial dissolution rate (—): grinding pressure 0. The data set is classed as physicochemical. How it is done: The coated API core particles have the taste of the API masked to allow easy swallowing or even chewing by patients. The API is still released from the coated API core particles in relatively short time. A USP Dissolution Test may be used to assess the release of API from the coated API core particles. The dissolution test employs a media of 7.2 pH phosphate buffer solution with 0.4 g/L sodium dodecyl sulfate (SDS, used to ensure wetting of the powders) at 37° C. and is carried out in USP Apparatus II (paddles) rotating at 50 RPM. The percentage of active pharmaceutical ingredient that is dissolved is measured over time. The coated API core particles can release the API in 30 minutes or less as measured in the USP Dissolution test, or in 20 minutes or less as measured in the USP dissolution test.

Each structure is given as a SMILES string.

For the compound `O=C1O[C@H]([C@@H](O)CO)C(O)=C1O` [ascorbic acid], the Time to dissolve (Example 23: 45 μm-63 μm) was determined as 10 s, the Time to dissolve result (Example 23: 90 μm-125 μm) is on record as “less than 20 seconds”, the Time to dissolve entry (Example 23: 150 μm-250 μm) is listed as “less than 60 seconds” and the Time to dissolve result (Example 23: 425 μm-500 μm) was “less than 60 seconds”. Moreover, the “Initial dissolution rate (—)” value reads like this: (ascorbic acid initial d50 93 μm) 9.16; (ascorbic acid initial d50 192 μm) 7.764; (ascorbic acid initial d50 341 μm) 4.053.
